Laboratory results: publication PMC3753754, “Andrographis paniculata Extract and Andrographolide Modulate the Hepatic Drug Metabolism System and Plasma Tolbutamide Concentrations in Rats” (Evidence-based Complementary and Alternative Medicine : eCAM, 2013)
Marks after values point to notes of the source that are not given here.

What was measured:
[1] = Rat growth: body weight and liver weight after 5 days of daily oral dosing; format: in vivo, Sprague-Dawley rats; settings: rats, oral 2 g/kg APE or 50 mg/kg AND daily for 5 days
Experimental: Seven-week-old male Sprague-Dawley rats cannulated in the jugular vein were purchased from the Bio LASCO Experimental Animal Center (Taipei, Taiwan). The animals were fed a standard rat diet and were randomly assigned into control, APE-treated, and andrographolide-treated groups (n = 5). Rats were housed in plastic cages in a room kept at 23 ± 1°C and 60 ± 5% relative humidity with a 12-hour light and dark cycle. Food and drinking water were available ad libitum. Control rats were orally administered methyl cellulose. […] After the 5th daily dose, rats were deprived of food overnight. On day 6, a 20 mg/kg oral dose of tolbutamide, as a solution in Cremophor EL (polyoxyl 35 hydrogenated castor oil, Sigma)/ethanol/water (30/10/60, v/v/v), was administered to each rat. After the administration of tolbutamide, serial blood samples were collected up to 12 h after dosing from each rat. The animals were then killed by exsanguination, and the livers were collected.
All animals were killed by exsanguination via the abdominal aorta while under carbon dioxide (CO2/O2, 70%/30%) anesthesia. Heparin was used as the anticoagulant. Plasma was separated from the blood by centrifugation (1750 ×g) at 4°C for 20 min. The liver from each animal was excised, weighed, and stored at −80°C. This research has received ethical approval from the institutional animal ethics committee of China Medical University, Taichung, Taiwan.

[2] = test system: CYP1A2; assay: Methoxyresorufin O-demethylation in liver microsomes of treated rats; format: in vivo; settings: rat liver microsomes; oral 2 g/kg APE or 50 mg/kg AND daily for 5 days
Experimental: (§1) Liver was homogenized (1 : 4, w/v) in an ice-cold potassium phosphate buffer (pH 7.4) containing 7.4 mM K2HPO4, 2.6 mM KH2PO4, 1.15% KCl, and 1 mM phenylmethylsulfonyl fluoride (PMSF). Tissue homogenates were centrifuged at 10,000 ×g for 30 min at 4°C. The resulting supernatant was then centrifuged at 105,000 ×g for 1 h at 4°C. The microsomes thus obtained were washed several times to get rid of possible tolbutamide contamination and this can avoid tolbutamide interference of CYP activity, and the microsomes were then suspended in potassium phosphate buffer (pH 7.7) containing 7.5 mM K2HPO4, 14.5 mM KH2PO4, and 1 mM EDTA. […] Metabolites of each CYP enzyme reaction were determined by LC/MS as reported previously. The contents of total CYP and cytochrome b5 were quantified by the method of Omura and Sato [29]. Enzyme activity is expressed as picomoles of metabolite formed per minute per milligram of protein. The NADPH-CYP reductase activity was measured as described by Phillips and Langdon with the use of cytochrome c as the substrate. The microsomal protein concentration was determined by using a Coomassie Plus protein assay kit (Pierce, Rockford, IL, USA).

[3] = test system: CYP2E1; assay: p-Nitrophenol 6-hydroxylation in liver microsomes of treated rats; format: in vivo; settings: rat liver microsomes; oral 2 g/kg APE or 50 mg/kg AND daily for 5 days
Experimental: as §1

[4] = test system: Glutathione S-transferase; assay: GST activity in liver of treated rats; format: in vivo; settings: rat liver; oral 2 g/kg APE or 50 mg/kg AND daily for 5 days
Experimental: The microsomal UGT activity was determined by using p-nitrophenol as the substrate. The rate of formation of p-nitrophenol glucuronic acid was measured by HPLC/UV [31]. GST activity was determined spectrophotometrically by measuring the formation rate of GSH conjugates.

[5] = test system: CYP2C6/11; assay: Hepatic CYP2C6 and CYP2C11 protein expression in high-fat diet-induced obese mice; format: in vivo, C57BL/6 mice; settings: 2 g/kg APE or 50 mg/kg AND daily for 5 days
Experimental: Eleven-month-old high-fat diet-fed (45% of energy from fat; Research Diet Inc., New Brunswick, NJ) C57BL/6 mice were obtained from the National Health Research Institute (Miaoli, Taiwan). Control mice were orally administered 0.5% methyl cellulose (10 mL/kg). […] After the 5th daily dose, the mice were deprived of food overnight. On day 6, a 20 mg/kg oral dose of tolbutamide, as a solution in Cremophor EL/ethanol/water (30/10/60, v/v/v), was administered to each mouse. Thirty minutes later, a 1 g/kg dose of glucose, as a solution in water, was administered orally according to the method described by Zong et al.. Serial blood samples were collected up to 8 h after the glucose dose from each mouse. The animals were then killed by exsanguination and the livers collected.
Aliquots of microsomal protein (10 μg) were electrophoresed in an SDS-polyacrylamide gel, and proteins were then transferred to polyvinylidene fluoride membranes. After blocking, membranes were hybridized with antibodies to CYP1A1, CYP1A2, CYP2C6, CYP2C11, CYP2D1, CYP2E1, CYP3A1, and CYP3A2.

Methoxyresorufin O-demethylase (1A2) [2]: 25.6 ± 7.2^b pmol/min/mg protein
p-Nitrophenol 6-hydroxylase (2E1) [3]: 91.1 ± 13.0^b pmol/min/mg protein
Glutathione S-transferase activity [4]: 634 ± 62 nmol/min/mg protein
Hepatic expression of CYP2C6/11 [5]: induced
SMILES: C=C1CC[C@@H]2[C@](C)(CO)[C@H](O)CC[C@@]2(C)[C@@H]1C/C=C1/C(=O)OC[C@H]1O [andrographolide, Andrographolide]
Relative liver weight ([1]; (liver weight/body weight) × 100): 3.8 ± 0.3%
Body weight, Final ([1]; mean ± SD, n = 5): 332 ± 13^a g
Liver weight ([1]; mean ± SD, n = 5): 12.8 ± 1.5 g
